In brackets after ≈: the same amount, converted by molar mass. Activity calls are given as the source filed them.

The nature of data set [1]: Half life at a pH of 9 and temperature 37 degree. The note with it: pH 9. In kind it is ADME.
The test system of data set [2] is Staphylococcus aureus. The data set can be described thus: Minimum inhibitory concentration against Staphylococcus aureus; No activity. In kind it is functional, organism-based.
Data set [3] can be described thus: Time dependent inhibition of hydrolysis of nitrocefin after 5 min pre-incubation with TEM-1 beta-lactamase (class 1).
The nature of data set [4]: Inhibition of hydrolysis of nitrocefin after 5 min pre-incubation with TEM-1 beta-lactamase (class 1).
Data set [5] in a line: Antibacterial activity expressed as binding to PBP 5 of Pseudomonas aeruginosa.
Data set [6] in a line: Antibacterial activity expressed as binding to PBP 1b of Pseudomonas aeruginosa.
A further data set has as its system Pseudomonas aeruginosa. The data set can be described thus: Minimum inhibitory concentration against Pseudomonas aeruginosa; 40-80 ug/mL. In kind it is functional.
Data set [7] can be described thus: Antibacterial activity expressed as binding to PBP 2 of Pseudomonas aeruginosa.
Data set [8] is described as follows: Antibacterial activity expressed as binding to PBP 4 of Pseudomonas aeruginosa.
Data set [9] can be described thus: Antibacterial activity expressed as binding to PBP 3 of Pseudomonas aeruginosa.
For a further data set, the system named is Enterobacter cloacae. The data set can be described thus: Minimum inhibitory concentration against Enterobacter cloacae; 40-80 ug/mL. The class given is functional.
Another data set relates to Serratia marcescens. The data set can be described thus: Minimum inhibitory concentration against Serratia marcescens; 40-80 ug/mL. The class given is functional.
The nature of data set [10]: Antibacterial activity expressed as binding to PBP 1a of Pseudomonas aeruginosa.
For data set [11], the system named is Staphylococcus aureus. The data set can be described thus: Minimum inhibitory concentration against Staphylococcus aureus;. The class given is functional.

One may read the half-life as the time needed for the level to fall by half in the phase considered. Broadly, the MIC is the lowest concentration found to suppress growth. As usually defined, the IC50 is the concentration at which inhibition is half-maximal. A lower IC50 goes with greater potency in that assay. In turn, `CC[C@@H]1C(=O)N2C[C@@H]1C=C(OC)C2C(=O)OCc1ccc([N+](=O)[O-])cc1` (stereo partly specified) yielded a half-life in data set [1] of 55 min. The MIC entry with Staphylococcus aureus [2] is “inactive”. Besides, the IC50 in [3] came to 420 µM.

`CC[C@@H]1C(=O)N2C[C@@H]1CC(OC)=C2C(=O)OCc1ccc([N+](=O)[O-])cc1` came in with a half-life in [1] of 42 min. In the data set on Staphylococcus aureus [2], the MIC result is “inactive”. The molecule also came in with a 50% inhibitory concentration (IC50) in [4] of more than 1000 µM.

As for `O=C(O)[C@H]1/C(=C/CO)O[C@@H]2CC(=O)N21` [CLAVULANIC ACID], the half-life in data set [1] was determined as 120 min. The same molecule yielded a 50% inhibitory concentration (IC50) in data set [3] of 0.065 µM.

On to `CC[C@@H]1C(=O)N2C[C@@H]1CC(OC)=C2C(=O)O`, for which the IC50 in data set [5] is 50 µM; in [6], more than 50 µM; in data set [7], 50 µM; in data set [8], 5 µM; in [9], 5 µM; in data set [3], 700 µM. This molecule also returned an IC50 in data set [10] of more than 50 µM. The molecule also gave a half-life in data set [1] of 25 min. For the same molecule, the MIC in the data set with Pseudomonas aeruginosa, against Enterobacter cloacae and in the data set on Serratia marcescens was 80 µg/mL (≈ 355 µM) in each case. Moreover, the MIC result in the data set with Staphylococcus aureus [2] is “inactive”.

Turning to `COC1=CC2CC(=O)N(C2)C1C(=O)OCc1ccc([N+](=O)[O-])cc1` (stereo unspecified), the MIC entry with Staphylococcus aureus [2] was “inactive”. The concentration for half-maximal inhibition (IC50) in data set [4] is 45 µM.

In the case of `CC(O)[C@H]1C(=O)N2C(C(=O)O)=C(SCCNC=N)C[C@H]12` (single isomer, unassigned) [IMIPENEM ANHYDROUS], the IC50 is 2.3 µM in data set [5]; 0.6 µM in data set [6]; less than 0.6 µM in [7]; less than 0.1 µM in [8]; 0.3 µM in data set [10].

In data set [1], `COC1=C[C@@H]2CC(=O)N(C2)C1C(=O)O` (stereo partly specified) gave a half-life of 14 min. Besides, the MIC against Pseudomonas aeruginosa, against Enterobacter cloacae, against Staphylococcus aureus [11] and against Serratia marcescens was 80 µg/mL (≈ 406 µM) throughout. Also, in [4], the 50% inhibitory concentration (IC50) was 280 µM.

Regarding `COC1=C(C(=O)OCc2ccc([N+](=O)[O-])cc2)N2C[C@@H](CC2=O)C1`, in [1], the half-life is 6 min. For the same molecule, the MIC entry in the data set on Staphylococcus aureus [2] was “inactive”. In data set [4], this molecule came in with an IC50 of 54 µM.

Values taken from ChEMBL document CHEMBL1148249, “Design and synthesis of bridged gamma-lactams as analogues of beta-lactam antibiotics” (Bioorg Med Chem Lett, 2004).
